Test results from patent US20250206754A1, “PAN-CHEMOKINE ANTAGONISTS FOR USE IN TREATING CANCER AND IMMUNE DISORDERS” ("Micar Innovation" LTD., priority 2022, published 2025).
Where two headings read alike, the source gives them in different places.

Tested on: 4T-1-luc cells
Type: in vivo
Conditions: for bioluminescence intensity of lung: Day32 after inoculation, ex vivo; for total number of metastasis found by the ex-vivo studies: control group 10; for Metastasis on Liver, mice with metastasis / Metastasis on Liver, total number / Metastasis on Lung, mice with metastasis / Metastasis on Lung, total number / Metastasis on ribs, mice with metastasis / Metastasis on ribs, total number: ex-vivo
Protocol: Design of the in vivo study: A total of 44 female BALB/c mice (12 mice for maximal tolerance dose (MTD) study; 32 mice for efficacy study) were used in the 4T-1-Luc study. The animals were specific pathogen free and approximately 4-5 weeks old at the initiation of the study.
Murine breast carcinoma cells 4T-1-luc cells used in this study, were cultured in a 37° C. incubator containing 5% CO2 with 10% FBS and 2 μg/mL puromycin in RPMI1640 medium. The cells were sub-cultured within 10 passages before inoculated into the mice. 2*10^5 4T-1-luc cells suspended in 20 uL PBS were orthotopically injected into the 4th fat pat on the right side of each mouse. Before inoculation, mice were pre-anesthetized with 30 mg/kg Zoletil mixed with 10 mg/kg Xylazine and kept anesthetized with 3-4% isoflurane. Injected subcutaneously 20 mg/kg Tolfedine as painkillers once a day for 3 days. The day of cell inoculation was denoted as Day0. On Day3, 16 bearing-tumor mice were randomized into 4 groups (4 mice per group) according to body weight and BLI signal. The information of the preparation of Hit 1 dosing solution is as follow:
(§1) For 2-({6-phenylthieno[2,3-d]pyrimidin-4-yl}oxy)benzamide (Hit1, MIC5022) 5 mg/kg dose, the preparation was like that: weighed 2.5 mg of Hit 1, added in 0.50 ml of ethanol, vortex or magnetic stirring enough to mix well (all compound dissolved will be better), added in 2.00 ml of PEG400, vortex or magnetic stirring until getting a clear solution (no more than 60° C. water base ultrasonicate may be needed), added 2.50 ml of water to get clear solution. The concentration was 0.5 mg/ml, the storage condition was at 4C temperature and the preparation frequency was each 5 days.
as §1, with “MIC5022) 30” for “MIC5022) 5”, “weighed 15” for “weighed 2.5”, “was 3” for “was 0.5”, “4C temperature,” for “4C temperature”
The concentration was 15 mg/ml, the storage condition was at 4C temperature, and the preparation frequency was each 5 days.
Each mouse has been observed for changes in general appearance and behavior every day for 4 weeks after grouping. The abnormal phenomena were recorded.
Body weight: Mice were measured and recorded twice a week after grouping, and during the dose period. Animals were also weighed in the event of accidental death or near-death euthanasia. Tumor volume: The tumor volume (V) was calculated as follows: V=(length×width2)/2. Tumor volume was measured twice per week. Tumor growth inhibition (TGI), TGI=(1−(T/C)×100%; T and C as the mean tumor volumes of the treatment and control groups on the measurement day.
The individual relative tumor volume (RTV) was calculated as follows: RTV=Vt/V0, where Vt was the volume on each day, and V0 was the volume at the beginning of the treatment. IVIS imaging: We used IVIS® In Vivo Imaging Systems (PerkinElmer, Waltham, MA) which allow high sensitivity and high resolution in vivo BLI and fluorescence imaging (FLI) across a wide range of wavelengths. Animals were imaged up to five at a time under 3-4% isoflurane gas anesthesia. Each mouse has been injected with D-Luciferin and imaged 10-15 minutes after the injection. BLI signal was quantified in regions of interest (ROIs) drawn around tumors or tissues ex vivo and the signal is expressed as photons per second, representing the flux radiating omni-directionally from the user-defined region […] post grouping (Day3, Day10, Day14, Day17, Day21, Day24, Day28 and Day31).

[1] = G2 5 mg/kg, Day31 after inoculation
[2] = G3 30 mg/kg, Day31 after inoculation
[3] = G4 150 mg/kg, Day31 after inoculation

## NC(=O)c1ccccc1Oc1ncnc2sc(-c3ccccc3)cc12 [Hit 1, 2-({6-phenylthieno[2,3-d]pyrimidin-4-yl}oxy)benzamide]
5 mg/kg
  bioluminescence intensity of lung: 1.07E+06
  total number of metastasis found by the ex-vivo studies: 3
30 mg/kg
  bioluminescence intensity of lung: 1.66E+06
  total number of metastasis found by the ex-vivo studies: 2
150 mg/kg
  bioluminescence intensity of lung: 1.56E+06
  total number of metastasis found by the ex-vivo studies: 5
5, 30, 150 mg/kg, Day31
  reduction of the spread of the tumor (bioluminescence vs control): 6-10 folds
5, 30, 150 mg/kg, ex-vivo images and manual counting
  metastasis in liver and ribs: completely eliminated
5, 30 and 150 mg/kg, Day32
  reduction of metastasis development (lung bioluminescence vs control): about five
G2 5 mg/kg p.o. QD, Day 3
  Animal bioluminescence imaging intensity, Mean: 2.07E+07 10^8 p/s
G2 5 mg/kg p.o. QD, Day 10
  Animal bioluminescence imaging intensity, Mean: 1.56E+08 10^8 p/s
G2 5 mg/kg p.o. QD, Day 17
  Animal bioluminescence imaging intensity, Mean: 3.39E+08 10^8 p/s
G2 5 mg/kg p.o. QD, Day 21
  Animal bioluminescence imaging intensity, Mean: 4.78E+08 10^8 p/s
G2 5 mg/kg p.o. QD, Day 24
  Animal bioluminescence imaging intensity, Mean: 3.52E+08 10^8 p/s
G2 5 mg/kg p.o. QD, Day 28
  Animal bioluminescence imaging intensity, Mean: 4.34E+08 10^8 p/s
G2 5 mg/kg p.o. QD, Day 31
  Animal bioluminescence imaging intensity, Mean: 5.01E+08 10^8 p/s
G2 5 mg/kg, Day3 after inoculation
  bioluminescence intensity: 0.21*10^7±0.056*10^8 p/s
G2 5 mg/kg, Day10 after inoculation
  tumor volume (TV): 86.53±6.03 mm^3
[1]
  bioluminescence intensity: 5.01*10^8±2.67*10^8 p/s
  relative tumor volume (RTV): 5.99±0.61
  tumor volume (TV): 515.90±53.18 mm^3
G2 (5 mg/kg)
  Metastasis on Liver, mice with metastasis: (0/4 mice)
  Metastasis on Liver, total number: totally 0
  Metastasis on Lung, mice with metastasis: 2/4 and (2/4 mice)
  Metastasis on Lung, total number: totally 3
  Metastasis on ribs, mice with metastasis: (0/4 mice)
  Metastasis on ribs, total number: totally 0
G2, G3 and G4 (5, 30, 150 mg/kg), p>0.05
  TV, RTV and TW compared with G1: no significant differences
G3 30 mg/kg
  tumor weight (TW): 0.95 ± 0.16 g
G3 30 mg/kg p.o. QD, Day 3
  Animal bioluminescence imaging intensity, Mean: 2.31E+07 10^8 p/s
G3 30 mg/kg p.o. QD, Day 10
  Animal bioluminescence imaging intensity, Mean: 2.71E+08 10^8 p/s
G3 30 mg/kg p.o. QD, Day 17
  Animal bioluminescence imaging intensity, Mean: 1.32E+08 10^8 p/s
G3 30 mg/kg p.o. QD, Day 21
  Animal bioluminescence imaging intensity, Mean: 1.30E+08 10^8 p/s
G3 30 mg/kg p.o. QD, Day 24
  Animal bioluminescence imaging intensity, Mean: 2.08E+08 10^8 p/s
G3 30 mg/kg p.o. QD, Day 28
  Animal bioluminescence imaging intensity, Mean: 4.49E+08 10^8 p/s
G3 30 mg/kg p.o. QD, Day 31
  Animal bioluminescence imaging intensity, Mean: 3.26E+08 10^8 p/s
G3 30 mg/kg, Day3 after inoculation
  bioluminescence intensity: 0.23*10^7±0.075*10^8 p/s
G3 30 mg/kg, Day10 after inoculation
  tumor volume (TV): 90.30±7.67 mm^3
[2]
  bioluminescence intensity: 3.26*10^8±0.89*10^8 p/s
  relative tumor volume (RTV): 5.33±0.64
  tumor volume (TV): 489.69±85.03 mm^3
G3 (30 mg/kg)
  Metastasis on Liver, mice with metastasis: (0/4 mice)
  Metastasis on Liver, total number: totally 0
  Metastasis on Lung, mice with metastasis: 2/4 and (2/4 mice)
  Metastasis on Lung, total number: totally 2
  Metastasis on ribs, mice with metastasis: (0/4 mice)
  Metastasis on ribs, total number: totally 0
G3 group 30 mg/kg, after day 24
  RTV course: clear decrease in the RTV
G4 150 mg/kg
  tumor weight (TW): 1.05 ± 0.19 g
G4 150 mg/kg, Day3 after inoculation
  bioluminescence intensity: 0.21*10^7±0.054*10^8 p/s
G4 150 mg/kg, Day10 after inoculation
  tumor volume (TV): 85.22±10.26 mm^3
[3]
  bioluminescence intensity: 5.08*10^8±2.16*10^8 p/s
  relative tumor volume (RTV): 5.92±0.63
  tumor volume (TV): 515.66±98.37 mm^3
G4 (150 mg/kg)
  Metastasis on Liver, mice with metastasis: (0/4 mice)
  Metastasis on Liver, total number: totally 0
  Metastasis on Lung, total number: totally 5
  Metastasis on ribs, mice with metastasis: (0/4 mice)
  Metastasis on ribs, total number: totally 0
Q4 150 mg/kg p.o. QD, Day 3
  Animal bioluminescence imaging intensity, Mean: 2.07E+07 10^8 p/s
Q4 150 mg/kg p.o. QD, Day 10
  Animal bioluminescence imaging intensity, Mean: 4.97E+07 10^8 p/s
Q4 150 mg/kg p.o. QD, Day 15
  Animal bioluminescence imaging intensity, Mean: 1.33E+08 10^8 p/s
Q4 150 mg/kg p.o. QD, Day 17
  Animal bioluminescence imaging intensity, Mean: 2.43E+08 10^8 p/s
Q4 150 mg/kg p.o. QD, Day 21
  Animal bioluminescence imaging intensity, Mean: 2.94E+08 10^8 p/s
Q4 150 mg/kg p.o. QD, Day 24
  Animal bioluminescence imaging intensity, Mean: 3.20E+08 10^8 p/s
Q4 150 mg/kg p.o. QD, Day 28
  Animal bioluminescence imaging intensity, Mean: 5.27E+08 10^8 p/s
Q4 150 mg/kg p.o. QD, Day 31
  Animal bioluminescence imaging intensity, Mean: 5.08E+08 10^8 p/s
Efficacy study, 5, 30, 150 mg/kg p.o. QD
  death or abnormal behavior during the experiment: no mice death or abnormal behavior of mice
mouse, in vivo
  safety conclusion: relatively biologically safe
